Values after ≈ are worked out from the molar mass of the structure shown.
Experiments:
[1] = tested on: KARPAS-299; assay: cells; conditions: Homo sapiens
[2] = tested on: BaF3; assay: cells; conditions: Mus musculus
[3] = Solubility of the compound […] at pH 6.8; format: physicochemical
[4] = biological target: Cytochrome P450 3A4 (Homo sapiens, UniProt P08684); assay: Inhibition of CYP3A4 in human liver microsomes using midazolam as substrate by LC-MS/MS analysis; format: ADME, Microsome
[5] = Intrinsic clearance in human liver microsomes; format: ADME, Microsome; conditions: read-out: CLH
[6] = Intrinsic clearance in mouse liver microsomes; format: ADME, Microsome; conditions: read-out: CLH
[7] = Intrinsic clearance in rat liver microsomes; format: ADME, Microsome; conditions: read-out: CLH
[8] = biological target: T1, Voltage-gated inwardly rectifying potassium channel KCNH2 (Homo sapiens, UniProt Q12809)
Description: Inhibition of human ERG by dofetilide binding assay

[9] = biological target: T1, Voltage-gated inwardly rectifying potassium channel KCNH2; assay: Inhibition of human ERG by patch-clamp technique
[10] = Oral bioavailability in Sprague-Dawley rat at 10 mg/kg; format: ADME, organism-based; conditions: in vivo

T1 sequence (Q12809 whole entry): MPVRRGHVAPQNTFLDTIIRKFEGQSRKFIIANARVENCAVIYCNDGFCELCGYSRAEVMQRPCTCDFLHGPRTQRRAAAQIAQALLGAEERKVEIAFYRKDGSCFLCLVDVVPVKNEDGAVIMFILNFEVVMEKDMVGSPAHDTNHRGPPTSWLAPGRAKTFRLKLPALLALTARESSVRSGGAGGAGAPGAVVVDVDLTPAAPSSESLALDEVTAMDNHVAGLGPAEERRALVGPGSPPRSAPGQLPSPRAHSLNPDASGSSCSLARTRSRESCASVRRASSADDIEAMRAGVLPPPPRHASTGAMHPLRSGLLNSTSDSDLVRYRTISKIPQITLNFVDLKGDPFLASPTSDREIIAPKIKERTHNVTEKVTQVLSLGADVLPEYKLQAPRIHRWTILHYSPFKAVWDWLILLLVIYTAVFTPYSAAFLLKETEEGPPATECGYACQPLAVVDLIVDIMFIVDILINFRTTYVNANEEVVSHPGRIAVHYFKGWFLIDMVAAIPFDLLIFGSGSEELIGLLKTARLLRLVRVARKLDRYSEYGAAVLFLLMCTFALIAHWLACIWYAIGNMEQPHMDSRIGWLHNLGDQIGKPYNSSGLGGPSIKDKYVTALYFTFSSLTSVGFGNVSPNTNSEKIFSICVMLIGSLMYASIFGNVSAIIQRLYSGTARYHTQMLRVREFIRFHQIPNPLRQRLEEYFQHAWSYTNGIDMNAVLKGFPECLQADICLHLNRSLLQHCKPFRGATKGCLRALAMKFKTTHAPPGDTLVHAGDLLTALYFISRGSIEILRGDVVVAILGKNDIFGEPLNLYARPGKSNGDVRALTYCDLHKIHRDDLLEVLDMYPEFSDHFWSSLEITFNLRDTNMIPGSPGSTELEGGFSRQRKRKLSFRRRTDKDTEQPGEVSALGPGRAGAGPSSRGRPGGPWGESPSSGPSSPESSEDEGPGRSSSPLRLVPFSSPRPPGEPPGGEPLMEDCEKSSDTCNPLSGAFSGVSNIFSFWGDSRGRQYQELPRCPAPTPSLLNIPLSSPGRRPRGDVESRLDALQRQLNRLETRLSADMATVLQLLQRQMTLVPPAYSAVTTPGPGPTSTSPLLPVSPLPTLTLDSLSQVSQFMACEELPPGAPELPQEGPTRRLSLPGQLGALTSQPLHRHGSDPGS
Cytochrome P450 3A4, sequence (P08684 whole entry): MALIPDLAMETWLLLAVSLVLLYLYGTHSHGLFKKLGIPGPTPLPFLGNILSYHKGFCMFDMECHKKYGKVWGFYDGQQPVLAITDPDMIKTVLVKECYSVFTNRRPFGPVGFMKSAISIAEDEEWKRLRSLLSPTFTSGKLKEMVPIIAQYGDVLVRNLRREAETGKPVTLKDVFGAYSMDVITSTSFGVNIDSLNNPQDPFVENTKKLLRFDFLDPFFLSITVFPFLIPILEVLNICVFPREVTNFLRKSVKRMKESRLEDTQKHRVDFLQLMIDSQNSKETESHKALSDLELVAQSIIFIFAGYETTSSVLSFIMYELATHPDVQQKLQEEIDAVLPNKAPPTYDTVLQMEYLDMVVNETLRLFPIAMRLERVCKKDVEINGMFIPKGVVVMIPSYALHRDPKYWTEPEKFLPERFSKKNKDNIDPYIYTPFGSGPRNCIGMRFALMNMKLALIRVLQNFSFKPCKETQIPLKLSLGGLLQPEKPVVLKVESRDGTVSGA

**Q.** For `CCN1CCC(c2cc(OC(C)C)c(Nc3ncc(C)c(Nc4ccccc4S(=O)(=O)C(C)C)n3)cc2C)CC1`, which IC50 [1] is on record?
**A.** Its IC50 is 10.5 nM.

**Q.** And the IC50 [2]?
**A.** The IC50 was 4000 nM.

**Q.** Which IC50 [1] does the source give for `Cc1cc(Nc2ncc(C)c(Nc3ccccc3S(=O)(=O)C(C)C)n2)c(OC(C)C)cc1C1CCN(CCO)CC1` here?
**A.** Its IC50 is 23.8 nM.

**Q.** What about the IC50 [2] of the same compound?
**A.** Its IC50 is over 10000 nM.

**Q.** For `COCCN1CCC(c2cc(OC(C)C)c(Nc3ncc(C)c(Nc4ccccc4S(=O)(=O)C(C)C)n3)cc2C)CC1`, which IC50 [1] is on record?
**A.** Its IC50 is 22.4 nM.

**Q.** What about the IC50 [2] of the same compound?
**A.** The IC50 was 4410 nM.

**Q.** Which results are given for `Cc1cc(Nc2ncc(Cl)c(Nc3ccccc3S(=O)(=O)C(C)C)n2)c(OC(C)C)cc1C1CCNC(=O)C1` (centres undefined)?
**A.** IC50 [1]: 38.4 nM; IC50 [2]: > 10000 nM

**Q.** What does the source list for `CC(C)Oc1nc(C2CCNCC2)ncc1Nc1ncc(Cl)c(Nc2ccccc2S(=O)(=O)C(C)C)n1`?
**A.** solubility [3]: 138 µM (≈ 75.4 µg/mL); INH [4]: 9.3 µM; microsomal CLint [5]: 16 µL/min/mg; microsomal CLint [6]: 21 µL/min/mg; microsomal CLint [7]: 18 µL/min/mg; IC50 [8]: 400 nM; IC50 [1]: 33.3 nM; IC50 [2]: 3800 nM

**Q.** Which results are given for `Cc1cc(Nc2cc(Nc3ccccc3S(=O)(=O)C(C)C)c(Cl)cn2)c(OC(C)C)cc1C1CCN(C)CC1`?
**A.** IC50 [1]: 5510 nM; IC50 [2]: 5410 nM

**Q.** Which results are given for `Cc1cc(Nc2ncc(Cl)c(Nc3ccccc3S(=O)(=O)N(C)C)n2)c(OC(C)C)cc1C1CCN(C)CC1`?
**A.** IC50 [1]: 14.3 nM; IC50 [2]: 1190 nM

**Q.** Which results are given for `CCN1CCC(c2cc(OC(C)C)c(Nc3ncc(Cl)c(Nc4ccccc4S(=O)(=O)C(C)C)n3)cc2C)CC1`?
**A.** IC50 [1]: 11.1 nM; IC50 [2]: 4120 nM

**Q.** Which IC50 [1] does the source give for `Cc1cc(Nc2ncc(Cl)c(Nc3ccccc3S(=O)(=O)C(C)C)n2)c(OC(C)C)cc1C1CCN(C(C)C)CC1` here?
**A.** Its IC50 is 14.5 nM.

**Q.** And the IC50 [2]?
**A.** The IC50 was 3860 nM.

**Q.** Which solubility [3] does the source give for `Cc1cc(Nc2ncc(Cl)c(Nc3ccccc3S(=O)(=O)C(C)C)n2)c(OC(C)C)cc1C1CCN(CCO)CC1` here?
**A.** The solubility was 36 µM (≈ 21.7 µg/mL).

**Q.** What about the INH [4] of the same compound?
**A.** Its INH is 2.5 µM.

**Q.** What about the microsomal CLint [5] of the same compound?
**A.** Its microsomal CLint is 15 µL/min/mg.

**Q.** And the microsomal CLint [6]?
**A.** The microsomal CLint was 15 µL/min/mg.

**Q.** And the microsomal CLint [7]?
**A.** Its microsomal CLint is 14 µL/min/mg.

**Q.** What about the IC50 [2] of the same compound?
**A.** The IC50 was 4340 nM.

**Q.** With `COCCN1CCC(c2cc(OC(C)C)c(Nc3ncc(Cl)c(Nc4ccccc4S(=O)(=O)C(C)C)n3)cc2C)CC1` as the compound, how does the IC50 [1] read?
**A.** Its IC50 is 16.1 nM.

**Q.** And the IC50 [2]?
**A.** The IC50 was 4970 nM.

**Q.** For `Cc1cc(Nc2ncc(Cl)c(Nc3ccccc3S(=O)(=O)C(C)C)n2)c(OC(C)C)cc1C1CCN(C2CCN(C)CC2)CC1`, which IC50 [1] is on record?
**A.** The IC50 was 100 nM.

**Q.** And the IC50 [2]?
**A.** The IC50 was 1420 nM.

**Q.** What does the source list for `Cc1cc(Nc2ncc(Cl)c(Nc3ccccc3S(=O)(=O)C(C)C)n2)c(OC(C)C)cc1C1CCN(CC(F)F)CC1`?
**A.** IC50 [1]: 294 nM; IC50 [2]: > 10000 nM

**Q.** For `Cc1cc(Nc2ncc(Cl)c(Nc3ccccc3S(=O)(=O)C(C)C)n2)c(OC(C)C)cc1C1CCN(CC(=O)O)CC1`, which IC50 [1] is on record?
**A.** Its IC50 is 15.3 nM.

**Q.** What about the IC50 [2] of the same compound?
**A.** The IC50 was over 10000 nM.

**Q.** For `Cc1cc(Nc2ncc(Cl)c(Nc3ccccc3S(=O)(=O)C(C)C)n2)c(OC(C)C)cc1C1CCN(CC(N)=O)CC1`, which IC50 [1] is on record?
**A.** The IC50 was 7.9 nM.

**Q.** And the IC50 [2]?
**A.** The IC50 was 7540 nM.

**Q.** For `Cc1cc(Nc2ncc(Cl)c(Nc3ccccc3S(=O)(=O)C(C)C)n2)c(OC(C)C)cc1C1CCN(C(=O)CN(C)C)CC1`, which solubility [3] is on record?
**A.** Its solubility is 4 µM (≈ 2.57 µg/mL).

**Q.** And the INH [4]?
**A.** The INH was 0.6 µM.

**Q.** What about the microsomal CLint [5] of the same compound?
**A.** The microsomal CLint was 46 µL/min/mg.

**Q.** And the microsomal CLint [6]?
**A.** The microsomal CLint was 45 µL/min/mg.

**Q.** What about the microsomal CLint [7] of the same compound?
**A.** The microsomal CLint was 21 µL/min/mg.

**Q.** What about the IC50 [1] of the same compound?
**A.** The IC50 was 21.7 nM.

**Q.** And the IC50 [2]?
**A.** Its IC50 is 2740 nM.

**Q.** What does the source list for `Cc1cc(Nc2ncc(C)c(Nc3ccccc3S(=O)(=O)C(C)C)n2)c(OC(C)C)cc1C1CCN(C)CC1`?
**A.** IC50 [9]: 20000 nM; solubility [3]: 144 µM (≈ 79.5 µg/mL); INH [4]: 9.8 µM; microsomal CLint [5]: 8 µL/min/mg; microsomal CLint [6]: 15 µL/min/mg; microsomal CLint [7]: 14 µL/min/mg; IC50 [8]: 1100 nM; IC50 [1]: 15.6 nM; IC50 [2]: 4080 nM

**Q.** With `CC(C)Oc1cc(N2CCC(N3CCN(C)CC3)CC2)ccc1Nc1ncc(Cl)c(Nc2ccccc2S(=O)(=O)C(C)C)n1` as the compound, how does the IC50 [1] read?
**A.** Its IC50 is 25.5 nM.

**Q.** What about the IC50 [2] of the same compound?
**A.** Its IC50 is 3400 nM.

**Q.** Which bioavailability [10] does the source give for `CC(C)Oc1cc(C2CCNCC2)ccc1Nc1ncc(Cl)c(Nc2ccccc2S(=O)(=O)C(C)C)n1` here?
**A.** The bioavailability was 12%.

**Q.** And the solubility [3]?
**A.** The solubility was 4 µM (≈ 2.18 µg/mL).

**Q.** And the INH [4]?
**A.** The INH was 1.4 µM.

**Q.** What about the microsomal CLint [5] of the same compound?
**A.** Its microsomal CLint is 15 µL/min/mg.

**Q.** And the microsomal CLint [6]?
**A.** Its microsomal CLint is 15 µL/min/mg.

**Q.** What about the microsomal CLint [7] of the same compound?
**A.** Its microsomal CLint is 15 µL/min/mg.

**Q.** What about the IC50 [1] of the same compound?
**A.** The IC50 was 7.8 nM.

**Q.** And the IC50 [2]?
**A.** Its IC50 is 3010 nM.

**Q.** Which IC50 [1] does the source give for `Cc1cc(Nc2ncc(C)c(Nc3ccccc3S(=O)(=O)C(C)C)n2)c(OC(C)C)cc1C1CCNCC1` here?
**A.** The IC50 was 13.1 nM.

**Q.** What about the IC50 [2] of the same compound?
**A.** Its IC50 is 2880 nM.

**Q.** For `Cc1cc(Nc2ncc(Cl)c(Nc3ccccc3S(=O)(=O)C3CCC3)n2)c(OC(C)C)cc1C1CCNCC1`, which IC50 [1] is on record?
**A.** The IC50 was 13.5 nM.

**Q.** What about the IC50 [2] of the same compound?
**A.** Its IC50 is 2460 nM.

**Q.** What does the source list for `Cc1cc(Nc2ncc(Cl)c(Nc3ccccc3S(=O)(=O)C(C)C)n2)c(OC2CCC2)cc1C1CCNCC1`?
**A.** solubility [3]: < 2 µM; INH [4]: 7.3 µM; microsomal CLint [5]: 15 µL/min/mg; microsomal CLint [6]: 15 µL/min/mg; microsomal CLint [7]: 15 µL/min/mg; IC50 [1]: 13.1 nM; IC50 [2]: 2520 nM

**Q.** With `Cc1cc(Nc2ncc(Cl)c(Nc3ccccc3S(=O)(=O)C(C)C)n2)c(OC(C)C)cc1C1CCN(C)CC1` as the compound, how does the solubility [3] read?
**A.** Its solubility is 64 µM (≈ 36.6 µg/mL).

**Q.** What about the INH [4] of the same compound?
**A.** The INH was 2.1 µM.

**Q.** And the microsomal CLint [5]?
**A.** The microsomal CLint was 17 µL/min/mg.

**Q.** And the microsomal CLint [6]?
**A.** Its microsomal CLint is 15 µL/min/mg.

**Q.** And the microsomal CLint [7]?
**A.** The microsomal CLint was 4 µL/min/mg.

**Q.** And the IC50 [1]?
**A.** Its IC50 is 11.2 nM.

**Q.** What about the IC50 [2] of the same compound?
**A.** The IC50 was 4000 nM.

Source: ChEMBL document CHEMBL2401692, “Synthesis, structure-activity relationships, and in vivo efficacy of the novel potent and selective anaplastic lymphoma kinase (ALK) inhibitor 5-chloro-N2-(2-isopropoxy-5-methyl-4-(piperidin-4-yl)phenyl)-N4-(2-(isopropylsulfonyl)phenyl)pyrimidine-2,4-diamine (LDK378) currently in phase 1 and phase …” (J Med Chem, 2013)
